Source: patent US12516056B2, “Compounds for inhibition of janus kinase 1” (MANKIND PHARMA LTD., priority 2019, dated 2026)
Read-outs that look alike come from different tables or passages of the source.

How the values were obtained:
Recombinant JAK1 = target: T1, Recombinant JAK1 (Homo sapiens, UniProt P23458); assay: JAK biochemical assay (LANCE Ultra TR-FRET), JAK1
T1 construct: purchased Carna Biosciences
Summary of the method: (§1)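 TR-FRET read-out of ULight substrate phosphorylation by recombinant kinase gives % inhibition relative to vehicle. The assay buffer is HEPES pH 7.5 with EGTA, MgCl2, DTT and Tween-20.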

Recombinant TYK2 = target: T2, Recombinant TYK2 (Homo sapiens, UniProt P29597); assay: JAK biochemical assay (LANCE Ultra TR-FRET), TYK2
T2 construct: purchased Carna Biosciences
T2 sequence (P29597 whole entry): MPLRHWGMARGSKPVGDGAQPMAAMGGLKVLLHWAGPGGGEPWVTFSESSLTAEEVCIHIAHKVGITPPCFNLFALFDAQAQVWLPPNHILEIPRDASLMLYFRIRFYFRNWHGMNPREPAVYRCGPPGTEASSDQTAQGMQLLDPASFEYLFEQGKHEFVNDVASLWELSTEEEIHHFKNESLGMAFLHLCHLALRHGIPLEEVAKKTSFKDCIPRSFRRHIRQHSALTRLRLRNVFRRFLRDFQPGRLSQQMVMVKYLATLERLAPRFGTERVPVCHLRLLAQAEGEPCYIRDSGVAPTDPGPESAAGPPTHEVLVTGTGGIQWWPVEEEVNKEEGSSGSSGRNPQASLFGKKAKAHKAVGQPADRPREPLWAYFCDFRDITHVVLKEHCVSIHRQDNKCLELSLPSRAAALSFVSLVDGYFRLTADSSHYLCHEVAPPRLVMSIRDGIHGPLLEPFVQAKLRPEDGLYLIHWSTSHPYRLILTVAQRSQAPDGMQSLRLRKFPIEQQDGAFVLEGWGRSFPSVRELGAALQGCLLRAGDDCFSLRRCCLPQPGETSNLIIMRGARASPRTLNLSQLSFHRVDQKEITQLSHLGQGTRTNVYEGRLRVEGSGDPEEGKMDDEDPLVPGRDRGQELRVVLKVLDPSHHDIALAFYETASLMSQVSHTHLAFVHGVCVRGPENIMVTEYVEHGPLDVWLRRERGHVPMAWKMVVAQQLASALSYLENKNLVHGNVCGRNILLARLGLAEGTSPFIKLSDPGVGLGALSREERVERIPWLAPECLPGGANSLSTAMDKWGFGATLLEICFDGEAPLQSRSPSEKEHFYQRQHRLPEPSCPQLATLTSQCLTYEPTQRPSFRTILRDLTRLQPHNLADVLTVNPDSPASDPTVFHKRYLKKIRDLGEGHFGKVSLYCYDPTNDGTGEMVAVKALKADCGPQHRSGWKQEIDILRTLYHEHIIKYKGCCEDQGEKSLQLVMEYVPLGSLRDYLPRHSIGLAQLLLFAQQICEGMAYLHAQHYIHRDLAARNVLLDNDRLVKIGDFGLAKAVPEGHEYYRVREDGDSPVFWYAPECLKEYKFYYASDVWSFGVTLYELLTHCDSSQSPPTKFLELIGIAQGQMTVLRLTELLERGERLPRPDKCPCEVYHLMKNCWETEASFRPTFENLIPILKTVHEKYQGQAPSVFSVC
Summary of the method: as §1

[1] = tested on: STAT5 phosphorylation by IL-2 in HT-2 cells; assay: STAT5 phosphorylation by IL-2 in HT-2 cells (HTRF); assay type: cell-based; conditions: HT2, HT-2 cells
Summary of the method: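 Readout is HTRF detection of phospho-STAT5 in lysates, corrected for signal from unstimulated cells. Before lysis, HT-2 cells starved in 10% FBS medium received compound for 30 min (0.2% DMSO final, 37 °C), followed by 50 U/ml recombinant human IL-2 for 20 min.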

[2] = tested on: Imiquimod induced dermatitis in mice; assay: Mouse model of Imiquimod induced psoriasis; assay type: in vivo, Female BALB/c mice; conditions: 3% topical, QD; for back skin thickness / cumulative psoriasis score compared to vehicle / ear thickness: IMQ induced psoriasis, mice
Method: Imiquimod (IMQ) induced dermatitis closely resembles human psoriasis lesions not only with regard to phenotypic and histological characteristics but also in the development of the lesions. IMQ is a ligand for toll-like receptor 7 (TLR7) and TLR8, and is a potent immune activator. […] Migration of activated dermal dendritic cells to lymph nodes in skin triggers a sequence of events leading to late phase of psoriasis. Compounds described herein are tested for JAK inhibition driven efficacy in Imiquimod induced dermatitis in mice.
Female BALB/c mice were topically dosed with 3% cream formulation containing test compounds. After four hours of test compound administration, 5% Imiquimod was applied on back skin and right ear for five days. On day 6, post dosing with test compounds, the severity of psoriasis was monitored and graded following Psoriasis Area and Severity Index (PASI). Efficacies of the compounds were evaluated based on PASI score. Redness, thickness and scaling of back skin and ear were assessed among the groups for scoring.

[3] = tested on: oxazolone induced colitis; assay: Murine model of oxazolone induced colitis; assay type: in vivo, Male BALB/c mice; conditions: 30 mpk, PO, BID
[4] = read-out: Biochemical IC50 (nM) JAK1
[5] = recombinant JAK1, TR-FRET, read-out: Biochemical Assay (μM) JAK1
[6] = read-out: Biochemical IC50 (nM) TYK2
[7] = recombinant TYK2, TR-FRET, read-out: Biochemical Assay (μM) TYK2
[8] = IL-2 50 U/ml, pSTAT5 HTRF, read-out: Cell Based Assay (μM) HT-2/IL-2/pSTAT5
[9] = IL-2 stimulation, read-out: Cell based IC50 (μM) HT-2/IL-2

T1 sequence (P23458 whole entry): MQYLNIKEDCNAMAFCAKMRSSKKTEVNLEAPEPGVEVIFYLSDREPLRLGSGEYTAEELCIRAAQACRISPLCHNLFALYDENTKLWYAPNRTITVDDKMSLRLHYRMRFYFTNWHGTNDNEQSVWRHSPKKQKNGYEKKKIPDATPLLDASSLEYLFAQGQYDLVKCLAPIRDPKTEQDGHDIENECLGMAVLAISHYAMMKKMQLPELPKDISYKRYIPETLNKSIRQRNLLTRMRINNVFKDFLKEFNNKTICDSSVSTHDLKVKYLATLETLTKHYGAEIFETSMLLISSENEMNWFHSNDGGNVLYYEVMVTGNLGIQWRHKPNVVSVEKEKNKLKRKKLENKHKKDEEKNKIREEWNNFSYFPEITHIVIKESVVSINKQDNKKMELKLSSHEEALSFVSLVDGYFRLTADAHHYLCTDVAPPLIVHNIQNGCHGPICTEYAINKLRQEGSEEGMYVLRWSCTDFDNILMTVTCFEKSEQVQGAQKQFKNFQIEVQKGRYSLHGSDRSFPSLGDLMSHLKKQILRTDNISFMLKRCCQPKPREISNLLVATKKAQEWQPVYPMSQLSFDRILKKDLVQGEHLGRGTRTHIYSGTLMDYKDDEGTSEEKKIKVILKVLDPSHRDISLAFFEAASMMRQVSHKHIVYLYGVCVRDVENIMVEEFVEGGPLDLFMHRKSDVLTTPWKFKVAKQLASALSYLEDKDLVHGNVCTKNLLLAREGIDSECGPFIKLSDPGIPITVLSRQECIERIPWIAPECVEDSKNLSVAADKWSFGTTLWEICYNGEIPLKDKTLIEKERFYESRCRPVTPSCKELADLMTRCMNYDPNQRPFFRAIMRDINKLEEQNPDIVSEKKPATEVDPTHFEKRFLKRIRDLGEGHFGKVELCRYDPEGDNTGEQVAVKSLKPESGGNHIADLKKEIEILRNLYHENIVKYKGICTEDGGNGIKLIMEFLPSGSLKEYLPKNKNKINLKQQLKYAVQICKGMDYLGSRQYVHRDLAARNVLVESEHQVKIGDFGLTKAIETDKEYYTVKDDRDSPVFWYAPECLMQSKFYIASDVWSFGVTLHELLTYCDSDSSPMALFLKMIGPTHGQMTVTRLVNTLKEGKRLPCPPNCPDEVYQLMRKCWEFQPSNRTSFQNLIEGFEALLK

IC50 (Recombinant JAK1; [4]) [nM] | IC50 (Recombinant JAK1; [5]) [nM] | IC50 (Recombinant TYK2; [6]) [nM] | IC50 (Recombinant TYK2; [7]) [nM] | IC50 [1, 8] [µM] | IC50 [1, 9] [µM] | Structure (SMILES) | back skin thickness [2] | cumulative psoriasis score compared to vehicle [2] | ear thickness [2] | efficacy compared to 1133 and reference compound filgotinib (psoriasis model) [2] | efficacy in comparison to Filgotinib (colitis model) [3]
8 | < 100 | 850 | > 1000 | 2.3 | 2.3 | CN1CCC(C(O)(c2ccc(-n3cc(-c4ccnc5[nH]cnc45)cn3)nc2)C(F)(F)F)CC1 (centres unmarked) [Example 1133, 1-(6-(4-(3H-imidazo[4,5-b]pyridin-7-yl)-1H-pyrazol-1-yl)pyridin-3-yl)-2,2,2-trifluoro-1-(1-methylpiperidin-4-yl)ethanol] | significant decrease | statistically significant decrease | significant decrease |  | 
0.5 | < 100 | > 100 | > 1000 | 0.75 | 0.7 | CC(C)NC(=O)CC[C@@H](c1ccc(-n2cc(-c3ccnc4[nH]cnc34)cn2)nc1)C(F)(F)F [Example 1215, (S)-4-(6-(4-(3H-imidazo[4,5-b]pyridin-7-yl)-1H-pyrazol-1-yl)pyridin-3-yl)-5,5,5-trifluoro-N-isopropylpentanamide] | significant decrease | statistically significant decrease | significant decrease | better efficacy | better efficacy
